Values after ≈ are worked out from the molar mass of the structure shown.
How the values were obtained:
[1] = test system: S. aureus MRSA5; assay: microbe, parasite or virus in culture; format: cell-based; conditions: Staphylococcus aureus
[2] = test system: E. faecium 494; assay: microbe, parasite or virus in culture; format: cell-based; conditions: Enterococcus faecium
[3] = test system: S. pneumoniae 700905; assay: microbe, parasite or virus in culture; format: cell-based; conditions: Streptococcus pneumoniae
[4] = test system: E. faecalis 29212; assay: microbe, parasite or virus in culture; format: cell-based; conditions: Enterococcus faecalis
[5] = test system: S. pneumoniae 157E; assay: animal or person; format: in vivo, mice; conditions: Streptococcus pneumoniae, 157E, in Mus musculus, 48 h, read-out: % survival; for responders at 5 mg/kg: sc
[6] = test system: S. aureus RN450; assay: microbe, parasite or virus in culture; format: cell-based; conditions: Staphylococcus aureus
[7] = test system: S. aureus RN4250; assay: microbe, parasite or virus in culture; format: cell-based; conditions: Staphylococcus aureus, RN4250
[8] = test system: Protein synthesis of S. aureus RN450; assay: microbe, parasite or virus in culture; format: cell-based
[9] = test system: Peptidoglycan synthesis of S. aureus RN450; assay: microbe, parasite or virus in culture; format: cell-based; conditions: Staphylococcus aureus
[10] = test system: S. pneumoniae 157E; assay: microbe, parasite or virus in culture; format: cell-based; conditions: Streptococcus pneumoniae

CO/N=C(\C)c1cc(CNCC(C)(C)C)c(O)c2c1C[C@H]1C[C@H]3[C@H](N(C)C)C(O)=C(C(N)=O)C(=O)[C@@]3(O)C(O)=C1C2=O [E]
MIC [1]: 0.25 µg/mL (≈ 0.428 µM) | MIC [2]: 1 µg/mL (≈ 1.71 µM) | MIC [3]: 0.06 µg/mL (≈ 0.103 µM) | MIC [4]: 0.25 µg/mL (≈ 0.428 µM) | responders at 10 mg/kg ([5]; po): 0% | responders at 5 mg/kg [5]: 40%

CN(C)[C@@H]1C(O)=C(C(N)=O)C(=O)[C@@]2(O)C(O)=C3C(=O)c4c(O)ccc(B5OC(C)(C)C(C)(C)O5)c4C[C@H]3C[C@@H]12 [F]
MIC [1]: 0.5 µg/mL (≈ 0.925 µM) | MIC [2]: 1 µg/mL (≈ 1.85 µM) | MIC [3]: 0.25 µg/mL (≈ 0.463 µM) | MIC [4]: 0.5 µg/mL (≈ 0.925 µM) | responders at 50 mg/kg ([5]; po): 100% | responders at 5 mg/kg [5]: 100%

C=CCN(C)Cc1cc(C(C)C)c2c(c1O)C(=O)C1=C(O)[C@]3(O)C(=O)C(C(N)=O)=C(O)[C@@H](N(C)C)[C@@H]3C[C@@H]1C2 [G]
MIC [1]: 0.5 µg/mL (≈ 0.927 µM) | MIC [2]: 1 µg/mL (≈ 1.85 µM) | MIC [3]: 0.06 µg/mL (≈ 0.111 µM) | MIC [4]: 0.5 µg/mL (≈ 0.927 µM)

CN(C)[C@@H]1C(O)=C(C(N)=O)C(=O)[C@@]2(O)C(O)=C3C(=O)c4c(O)c(CNCCC(F)(F)F)cc(-c5ncccn5)c4C[C@H]3C[C@@H]12 [J]
MIC [1]: 0.5 µg/mL (≈ 0.81 µM) | MIC [2]: 1 µg/mL (≈ 1.62 µM) | MIC [3]: 0.06 µg/mL (≈ 0.0972 µM) | MIC [4]: 0.25 µg/mL (≈ 0.405 µM)

CN(Cc1ccccc1F)Cc1cc(N(C)C)c2c(c1O)C(=O)C1=C(O)[C@]3(O)C(=O)C(C(N)=O)=C(O)[C@@H](N(C)C)[C@@H]3C[C@@H]1C2 [K]
MIC [1]: 0.5 µg/mL (≈ 0.821 µM) | MIC [2]: 1 µg/mL (≈ 1.64 µM) | MIC [3]: 0.25 µg/mL (≈ 0.411 µM) | MIC [4]: 1 µg/mL (≈ 1.64 µM)

CN(CCC(F)(F)F)Cc1cc(N(C)C)c2c(c1O)C(=O)C1=C(O)[C@]3(O)C(=O)C(C(N)=O)=C(O)[C@@H](N(C)C)[C@@H]3C[C@@H]1C2 [L]
MIC [1]: 0.5 µg/mL (≈ 0.838 µM) | MIC [2]: 1 µg/mL (≈ 1.68 µM) | MIC [3]: 0.75 µg/mL (≈ 1.26 µM) | MIC [4]: 1 µg/mL (≈ 1.68 µM)

CCN(CCCC(F)(F)F)Cc1cc(N(C)C)c2c(c1O)C(=O)C1=C(O)[C@]3(O)C(=O)C(C(N)=O)=C(O)[C@@H](N(C)C)[C@@H]3C[C@@H]1C2 [N]
MIC [1]: 1 µg/mL (≈ 1.6 µM) | MIC [2]: 0.5 µg/mL (≈ 0.8 µM) | MIC [3]: 0.13 µg/mL (≈ 0.208 µM) | MIC [4]: 1 µg/mL (≈ 1.6 µM)

CN(C)[C@@H]1C(O)=C(C(N)=O)C(=O)[C@@]2(O)C(O)=C3C(=O)c4c(O)ccc(C(=O)CN5CCCCC5)c4C[C@H]3C[C@@H]12 [O]
MIC [6]: 0.06 µg/mL (≈ 0.111 µM) | MIC [7]: 0.06 µg/mL (≈ 0.111 µM) | macromolecular synthesis profile in words [8]: profile similar to class I compounds | IC50 ([8]; Staphylococcus aureus, read-out: Protein synthesis IC50): 0.33 µg/mL (≈ 0.612 µM) | IC90 ([8]; Staphylococcus aureus, read-out: Protein synthesis IC90): 0.92 µg/mL (≈ 1.71 µM) | IC50 ([9]; read-out: Peptidoglycan synthesis IC50): > 32 µg/mL | IC90 ([9]; read-out: Peptidoglycan synthesis IC90): > 32 µg/mL

CN(C)[C@@H]1C(O)=C(C(N)=O)C(=O)[C@@]2(O)C(O)=C3C(=O)c4c(O)ccc(-c5cncc(CN6CCCCC6)c5)c4C[C@H]3C[C@@H]12 [P]
MIC [6]: 0.06 µg/mL (≈ 0.102 µM) | MIC [7]: 0.06 µg/mL (≈ 0.102 µM)

CC(C)N(C)Cc1ccc(-c2ccc(O)c3c2C[C@H]2C[C@H]4[C@H](N(C)C)C(O)=C(C(N)=O)C(=O)[C@@]4(O)C(O)=C2C3=O)o1 [Q]
MIC [6]: 0.06 µg/mL (≈ 0.106 µM) | MIC [7]: 0.06 µg/mL (≈ 0.106 µM)

C=CCN(C)Cc1cncc(-c2ccc(O)c3c2C[C@H]2C[C@H]4[C@@H](N(C)C)C(O)=C(C(N)=O)C(=O)[C@@]4(O)C(O)=C2C3=O)c1 [T]
MIC [6]: 0.06 µg/mL (≈ 0.104 µM) | MIC [7]: 0.06 µg/mL (≈ 0.104 µM)

CN(C)[C@@H]1C(O)=C(C(N)=O)C(=O)[C@@]2(O)C(O)=C3C(=O)c4c(O)ccc(CN5CCC(F)CC5)c4C[C@H]3C[C@@H]12 [U]
MIC [6]: 0.06 µg/mL (≈ 0.113 µM) | MIC [7]: 0.06 µg/mL (≈ 0.113 µM)

CC(C)NCc1ccc(-c2ccc(O)c3c2C[C@H]2C[C@H]4[C@H](N(C)C)C(O)=C(C(N)=O)C(=O)[C@@]4(O)C(O)=C2C3=O)cc1 [W]
MIC [6]: 0.06 µg/mL (≈ 0.107 µM) | MIC [7]: 0.06 µg/mL (≈ 0.107 µM)

COc1ccc(CN(C)C)c(-c2ccc(O)c3c2C[C@H]2C[C@H]4[C@H](N(C)C)C(O)=C(C(N)=O)C(=O)[C@@]4(O)C(O)=C2C3=O)c1 [X]
MIC [6]: 0.06 µg/mL (≈ 0.104 µM) | MIC [7]: 0.06 µg/mL (≈ 0.104 µM)

COCCNCc1ccc(-c2ccc(O)c3c2C[C@H]2C[C@H]4[C@H](N(C)C)C(O)=C(C(N)=O)C(=O)[C@@]4(O)C(O)=C2C3=O)cc1 [Y]
MIC [6]: 0.06 µg/mL (≈ 0.104 µM) | MIC [7]: 0.06 µg/mL (≈ 0.104 µM)

CN(C)[C@@H]1C(O)=C(C(N)=O)C(=O)[C@@]2(O)C(O)=C3C(=O)c4c(O)ccc(C#Cc5ccccn5)c4C[C@H]3C[C@@H]12 [Z]
MIC [6]: 0.13 µg/mL (≈ 0.252 µM) | MIC [1]: 0.5 µg/mL (≈ 0.97 µM) | MIC [10]: 0.06 µg/mL (≈ 0.116 µM)

— US8440646B1 (priority 2006, dated 2013)
